From patent US20170151221A1, “PHARMACEUTICAL COMPOSITIONS COMPRISING CEFEPIME OR SULBACTAM” (priority 2014, published 2017)
Read-outs that look alike come from different tables or passages of the source.

Key:
[1] = test system: Acinetobacter baumannii NCTC 13302 producing carbapenemase hydrolyzing OXA 25 enzyme; assay: Time kill study; type: cell-based; settings: for Effect on bacterial count throughout the duration of the study (in words): cefepime, sulbactam, imipenem at 8 mcg/ml, compound of Formula (I) at 4 mcg/ml, alone or in combination
Procedure: (§1) The synergistic killing effect of the combinations according to invention was studied by performing typical time kill studies. Typically, freshly grown cultures were diluted to the required cell density (initial starting inoculum) in Cation adjusted Muller Hinton broth medium (BD, USA). The antibacterial agents at the required concentrations were added into the culture-containing medium either alone or in combination. The samples were incubated under shaking condition (120 rpm) at 37° C. Enumeration of viable bacterial count was undertaken, every 2 hour, by diluting in normal saline and plating on to the Tryptic Soya Agar plates (BD, USA). The plates were incubated for 24 hours to arrive at the viable bacterial count. […] The decrease of 1 Log CFU/ml, after administration of combination of present invention, in comparison to initial bacterial count corresponds to 90% killing of bacteria. Similarly, 2 Log CFU/ml reductions corresponds to 99% killing of bacteria and 3 Log CFU/ml reductions is equal to 99.9% killing of bacteria.
(§2) The assay without any antibacterial agent was taken as control.

[2] = test system: Acinetobacter baumannii NCTC 13301 producing Carbapenemase hydrolyzing OXA 23 enzyme; assay: Time kill study; type: cell-based; settings: for Effect on bacterial count throughout the duration of the study (in words): cefepime, sulbactam, imipenem at 8 mcg/ml, compound of Formula (I) at 4 mcg/ml, alone or in combination
Procedure: as §1, §2

[3] = test system: carbapenam hydrolyzing (CHDL) and oxacillinases (OXA) producing Acinetobactor strains; assay: Antibacterial activity, summary statements over Tables 1-3; type: cell-based, Acinetobacter baumannii; settings: for Antibacterial effect against highly resistant strains of A. baumannii (in words): summary of Tables 1-3; for Change of MIC values in the presence of compound of Formula (I) (in words): Table 1 strains, compound of Formula (I) at 4 or 8 mcg/ml
Procedure: (§3) The antibacterial activity of combinations according to the invention was investigated against various bacterial strains. In a typical study, minimum inhibitory concentrations (MIC) were determined using Muller Hinton Agar (MHA) (BD, USA) according to Clinical and Laboratory Standards Institute (CLSI) recommendations, (Clinical and Laboratory Standards Institute (CLSI), Performance Standards for Antimicrobial Susceptibility Testing, 20th Informational Supplement, M 100-S20, Volume 30, No. 1, 2010). In short, the inocula were adjusted to deliver about 10^4 colony forming units (CFU) per spot with a multipoint inoculator (Applied Quality Services, UK). The plates were pored with doubling concentration range of the test combinations according to invention containing MHA. The plates were inoculated and were incubated at 35° C. for 18 hours.
as §1

[4] = test system: A. baumannii S 8 [OXA 51, OXA 23]; assay: MIC by agar dilution (Muller Hinton Agar, CLSI); type: cell-based; settings: Acinetobacter baumannii
Procedure: as §3

[5] = test system: A. baumannii 1449880 [OXA 51, OXA 23]; assay: MIC by agar dilution (Muller Hinton Agar, CLSI); type: cell-based; settings: Acinetobacter baumannii
Procedure: as §3

[6] = test system: A. baumannii NCTC 13304 [OXA 51, OXA 27]; assay: MIC by agar dilution (Muller Hinton Agar, CLSI); type: cell-based; settings: Acinetobacter baumannii
Procedure: as §3

[7] = test system: A. baumannii NCTC 13302 [OXA 51, OXA 25]; assay: MIC by agar dilution (Muller Hinton Agar, CLSI); type: cell-based; settings: Acinetobacter baumannii
Procedure: as §3

[8] = test system: A. baumannii J 145 [OXA 51, OXA 24]; assay: MIC by agar dilution (Muller Hinton Agar, CLSI); type: cell-based; settings: Acinetobacter baumannii
Procedure: as §3

[9] = test system: A. baumannii 1363934 [OXA 51, OXA 23]; assay: MIC by agar dilution (Muller Hinton Agar, CLSI); type: cell-based; settings: Acinetobacter baumannii
Procedure: as §3

[10] = 0 hours, agent alone at 4 mcg/ml
[11] = 2 hours, agent alone at 4 mcg/ml
[12] = 4 hours, agent alone at 4 mcg/ml
[13] = 6 hours, agent alone at 4 mcg/ml
[14] = 8 hours, agent alone at 4 mcg/ml
[15] = agent alone, A. baumannii S 8, read-out: MIC
[16] = agent alone, A. baumannii 1449880, read-out: MIC
[17] = NCTC13304, agent alone, A. baumannii NCTC 13304, read-out: MIC
[18] = NCTC13302, agent alone, A. baumannii NCTC 13302, read-out: MIC
[19] = agent alone, A. baumannii J 145, read-out: MIC
[20] = agent alone, A. baumannii 1363934, read-out: MIC
[21] = 0 hours, agent alone at 8 mcg/ml
[22] = 2 hours, agent alone at 8 mcg/ml
[23] = 4 hours, agent alone at 8 mcg/ml
[24] = 6 hours, agent alone at 8 mcg/ml
[25] = 8 hours, agent alone at 8 mcg/ml
[26] = read-out: MIC (mcg/ml) in presence of Compound of Formula (I) at 4 mcg/ml
[27] = read-out: MIC (mcg/ml) in presence of Compound of Formula (I) at 8 mcg/ml

Row | MIC [4, 15] [µg/mL] | MIC [5, 16] [µg/mL] | MIC [6, 17] [µg/mL] | MIC [7, 18] [µg/mL] | MIC [8, 19] [µg/mL] | MIC [9, 20] [µg/mL] | Compound | Effect on bacterial count throughout the duration of the study (in words) ([1]; 8 hours) | Effect on bacterial count throughout the duration of the study (in words) ([2]; 8 hours) | Antibacterial effect against highly resistant strains of A. baumannii (in words) [3] | Bacterial count (Log10 CFU/ml) [1, 21] [Log10 CFU/ml] | Bacterial count (Log10 CFU/ml) [1, 22] [Log10 CFU/ml] | Bacterial count (Log10 CFU/ml) [1, 23] [Log10 CFU/ml] | Bacterial count (Log10 CFU/ml) [1, 24] [Log10 CFU/ml] | Bacterial count (Log10 CFU/ml) [1, 25] [Log10 CFU/ml] | Bacterial count (Log10 CFU/ml) [2, 21] [Log10 CFU/ml] | Bacterial count (Log10 CFU/ml) [2, 22] [Log10 CFU/ml] | Bacterial count (Log10 CFU/ml) [2, 23] [Log10 CFU/ml] | Bacterial count (Log10 CFU/ml) [2, 24] [Log10 CFU/ml] | Bacterial count (Log10 CFU/ml) [2, 25] [Log10 CFU/ml] | Change of MIC values in the presence of compound of Formula (I) (in words) [3] | also measured
1 | > 128 | > 128 | > 128 | > 128 | > 128 | > 128 | O=C(NNC(=O)[C@@H]1CC[C@@H]2CN1C(=O)N2OS(=O)(=O)O)[C@@H]1CCNC1 [Compound of Formula (I), trans-sulfuric acid mono-[2-(N′-[(R)-pyrrolidin-3-carbonyl]-hydrazinocarbonyl)-7-oxo-1,6-diaza-bicyclo[3.2.1]oct-6-yl] ester] | not effective to decrease the bacterial count | not effective to decrease the bacterial count | ineffective | – | – | – | – | – | – | – | – | – | – | – | Bacterial count (Log10 CFU/ml) [1, 10]: 6.30 Log10 CFU/ml; Bacterial count (Log10 CFU/ml) [1, 11]: 7.903 Log10 CFU/ml; Bacterial count (Log10 CFU/ml) [1, 12]: 7.845 Log10 CFU/ml; Bacterial count (Log10 CFU/ml) [1, 13]: 7.875 Log10 CFU/ml; Bacterial count (Log10 CFU/ml) [1, 14]: 8.04 Log10 CFU/ml; Bacterial count (Log10 CFU/ml) [2, 10]: 6.32 Log10 CFU/ml; Bacterial count (Log10 CFU/ml) [2, 11]: 8.02 Log10 CFU/ml; Bacterial count (Log10 CFU/ml) [2, 12]: 8.36 Log10 CFU/ml; Bacterial count (Log10 CFU/ml) [2, 13]: 8.35 Log10 CFU/ml; Bacterial count (Log10 CFU/ml) [2, 14]: 8.39 Log10 CFU/ml
2 | – | – | – | – | – | – | CC1(C)[C@H](C(=O)O)N2C(=O)C[C@H]2S1(=O)=O [Sulbactam] | not effective to decrease the bacterial count | not effective to decrease the bacterial count | ineffective | 6.30 | 7.39 | 7.69 | 7.34 | 7.34 | 6.32 | 7.27 | 7.65 | 7.74 | 7.81 | significantly decreased | MIC ([4]; read-out: MIC (mcg/ml)): 16 µg/mL; MIC [4, 26]: 8 µg/mL; MIC [4, 27]: 4 µg/mL; MIC ([5]; read-out: MIC (mcg/ml)): 8 µg/mL; MIC [5, 26]: 0.5 µg/mL; MIC [5, 27]: 0.5 µg/mL; MIC ([6]; NCTC13304, read-out: MIC (mcg/ml)): 16 µg/mL; MIC ([6]; NCTC13304, read-out: MIC (mcg/ml) in presence of Compound of Formula (I) at 4 mcg/ml): 2 µg/mL; MIC ([6]; NCTC13304, read-out: MIC (mcg/ml) in presence of Compound of Formula (I) at 8 mcg/ml): 2 µg/mL; MIC ([7]; NCTC13302, read-out: MIC (mcg/ml)): 16 µg/mL; MIC ([7]; NCTC13302, read-out: MIC (mcg/ml) in presence of Compound of Formula (I) at 4 mcg/ml): 2 µg/mL; MIC ([7]; NCTC13302, read-out: MIC (mcg/ml) in presence of Compound of Formula (I) at 8 mcg/ml): 1 µg/mL; MIC ([8]; read-out: MIC (mcg/ml)): 16 µg/mL; MIC [8, 26]: 2 µg/mL; MIC [8, 27]: 2 µg/mL; MIC ([9]; read-out: MIC (mcg/ml)): 16 µg/mL; MIC [9, 26]: 2 µg/mL; MIC [9, 27]: 2 µg/mL
3 | > 32 | > 32 | 32 | 32 | 32 | > 32 | CO/N=C(\C(=O)N[C@@H]1C(=O)N2C(C(=O)[O-])=C(C[N+]3(C)CCCC3)CS[C@H]12)c1csc(N)n1 [Cefepime] | not effective to decrease the bacterial count | not effective to decrease the bacterial count | ineffective | 6.30 | 7.740 | 7.929 | 7.662 | 7.56 | 6.32 | 8.26 | 8.06 | 8.26 | 8.13 | significantly decreased | MIC ([4]; with Compound of Formula (I) at 4 mcg/ml, A. baumannii S 8, read-out: MIC (mcg/ml) in presence of Compound of Formula (I) at 4 mcg/ml): 8 µg/mL; MIC ([4]; with Compound of Formula (I) at 8 mcg/ml, A. baumannii S 8, read-out: MIC (mcg/ml) in presence of Compound of Formula (I) at 8 mcg/ml): 8 µg/mL; MIC ([5]; with Compound of Formula (I) at 4 mcg/ml, A. baumannii 1449880, read-out: MIC (mcg/ml) in presence of Compound of Formula (I) at 4 mcg/ml): 2 µg/mL; MIC ([5]; with Compound of Formula (I) at 8 mcg/ml, A. baumannii 1449880, read-out: MIC (mcg/ml) in presence of Compound of Formula (I) at 8 mcg/ml): 2 µg/mL; MIC ([6]; NCTC13304, with Compound of Formula (I) at 4 mcg/ml, A. baumannii NCTC 13304, read-out: MIC (mcg/ml) in presence of Compound of Formula (I) at 4 mcg/ml): 8 µg/mL; MIC ([6]; NCTC13304, with Compound of Formula (I) at 8 mcg/ml, A. baumannii NCTC 13304, read-out: MIC (mcg/ml) in presence of Compound of Formula (I) at 8 mcg/ml): 4 µg/mL; MIC ([7]; NCTC13302, with Compound of Formula (I) at 4 mcg/ml, A. baumannii NCTC 13302, read-out: MIC (mcg/ml) in presence of Compound of Formula (I) at 4 mcg/ml): 8 µg/mL; MIC ([7]; NCTC13302, with Compound of Formula (I) at 8 mcg/ml, A. baumannii NCTC 13302, read-out: MIC (mcg/ml) in presence of Compound of Formula (I) at 8 mcg/ml): 8 µg/mL; MIC ([8]; with Compound of Formula (I) at 4 mcg/ml, A. baumannii J 145, read-out: MIC (mcg/ml) in presence of Compound of Formula (I) at 4 mcg/ml): 16 µg/mL; MIC ([8]; with Compound of Formula (I) at 8 mcg/ml, A. baumannii J 145, read-out: MIC (mcg/ml) in presence of Compound of Formula (I) at 8 mcg/ml): 8 µg/mL; MIC ([9]; with Compound of Formula (I) at 4 mcg/ml, A. baumannii 1363934, read-out: MIC (mcg/ml) in presence of Compound of Formula (I) at 4 mcg/ml): 16 µg/mL; MIC ([9]; with Compound of Formula (I) at 8 mcg/ml, A. baumannii 1363934, read-out: MIC (mcg/ml) in presence of Compound of Formula (I) at 8 mcg/ml): 8 µg/mL
4 | 16 | 8 | > 32 | > 32 | > 32 | > 32 | C[C@@H](O)[C@H]1C(=O)N2C(C(=O)O)=C(SCCN=CN)C[C@H]12 [Imipenem] | – | – | – | 6.30 | 8.079 | 8.703 | 8.176 | 8.38 | 6.32 | 8.20 | 8.43 | 8.43 | 8.51 | – | –
